# According to patent US11447525B2 (NIIGATA UNIVERSITY, priority 2018, dated 2022):
# Non-standard residues stand in square brackets, D forms with d. Residues, ends and D or L forms follow the SMILES beside them. *: point of attachment. 5FAM = O=C1OC2(c3ccc(O)cc3Oc3cc(O)ccc32)c2ccc(C(=O)*)cc21
# What was measured:
# [1] = test system: pancreatic cancer cells (BxPC3, PK-8, MIA-Paca2); test: Accumulation of FAM-labeled peptides in cells, inverted fluorescence microscope (Test Example 2); format: cell-based, human; settings: 2 μM, 37° C., 2 hours
# Protocol: (§1) Tests were conducted to confirm the accumulation of each peptide in each of the cells shown below in Table 8. Further, among the peptides shown below in Table 9, the FAM-PCPP11 used in Test Example 1, the LL peptide in which the N-terminus had been FAM-labeled (FAM-LL), and the Ld peptide in which the N-terminus had been FAM-labeled (FAM-Ld) were used.
# (§2) Each of FAM-PCPP11, FAM-LL and FAM-Ld was added to each of the cells shown in Table 8 in an amount sufficient to achieve a final concentration in the medium of 2 μM, and following cultivation of the cells at 37° C. for 2 hours, the sample was washed 3 times with a medium containing no peptide to remove any peptide within the medium. Subsequently, the incorporation of each of the peptides into each of the cells was evaluated visually using an inverted fluorescence microscope. Prior to the microscopic examination, the culture supernatant to which the peptide had been added was removed, and following washing three times with 1×PBS (−), a trypsin treatment was conducted to remove the adherent cells, and the resultant was immediately transferred into a new 96-well plate and once again suspended in fresh culture solution before the microscopic examination was performed. In FIG. 8A, “L” indicates the cells to which FAM-PCPP11 was added, “LL” indicates the cells to which FAM-LL was added, and “Ld” indicates the cells to which FAM-Ld was added. Further, the fluorescent images in the BxPC3 cells indicate a representative example of pancreatic cancer cells.
# (§3) Furthermore, FIG. 8B is a graph quantifying the fluorescence detected in each of the above cells in FIG. 8A, with the fluorescence intensity detected in each cell shown relative to a value of 1.0 for the fluorescence detected in the H2110 cells, which is a cell line derived from an adenocarcinoma in a human non-small-cell lung cancer system, to which each of the FAM-PCPP11 and FAM-LL peptides had been added.
# Further, each of FAM-PCPP11, FAM-LL and FAM-NmLL was added to each of the cells shown in Table 8 in an amount sufficient to achieve a final concentration in the medium of 2 μM, and following cultivation of the cells at 37° C. for 2 hours, the sample was washed 3 times with a medium containing no peptide to remove any peptide within the medium. Subsequently, the incorporation of each of the peptides into each of the cells was evaluated visually using an inverted fluorescence microscope. […]
# [2] = test system: stomach cancer cells (SCH); test: as above; format: cell-based, human; settings: 2 μM, 37° C., 2 hours
# Protocol: as §1, §2, §3
# [3] = test system: human pancreatic cancer growth and progression mouse model (subcutaneous and intraperitoneal human pancreatic cancer cell-transplanted); test: Selective absorption into tissues of human pancreatic cancer growth and progression mouse model, fluorescence signal (Test Examples 3, 4, Reference Example 2); format: in vivo, Balb/c nu/nu mouse; settings: 200 μg intravenously, 30 minutes after injection; for nonspecific absorption compared with conventional PCPP11: FIG. 10A to 10D; for absorption into pancreatic malignant tumors compared with the conventional PCPP11: FIG. 11
# Protocol: Subsequently, 200 μg of each of the fluorescent labeled peptides prepared above in “1.” was injected intravenously into a human pancreatic cancer growth and progression mouse model (Balb/c nu/nu mouse, subcutaneous and intraperitoneal human pancreatic cancer cell-transplanted model). The pharmacokinetics of the peptide 30 minutes after the intravenous injection were then analyzed by tissue analysis of the freshly dissected specimen of the administered mouse, with the absorption quantified by detection of the fluorescence signal. […] In FIG. 9A, “sc tumor” is an abbreviation for “subcutaneous tumor”. In FIG. 9B, “abd tumor” is an abbreviation for “abdominal tumor”, indicating a tumor formed intraperitoneally. Further, “br” indicates the brain, “hr” indicates the heart, “kd” indicates the kidney, and “liv” indicates the liver. Furthermore, “liv. meta” is an abbreviation for “liver metastatic tumor”, and describes a tumor that has metastasized to the liver. Moreover, “panc” indicates the pancreas, and “sp” indicates the spleen. These same abbreviations are also used in subsequent figures. Furthermore, the term “untreated” in FIG. 9A indicates tissues resected from a mouse that was not administered with any fluorescent labeled peptide.
# Specifically, first, either 27 μg or 200 μg of fluorescein was injected intravenously into a human pancreatic cancer growth and progression mouse model (Balb/c nu/nu mouse, subcutaneous and intraperitoneal human pancreatic cancer cell-transplanted model). The pharmacokinetics of the FLC 30 minutes after the intravenous injection were then analyzed by tissue analysis of the freshly dissected specimen of the administered mouse, with the absorption quantified by detection of the fluorescence signal.
# [4] = test system: pancreatic cancer cells (BxPC3, PK-8, MIA-Paca2, AsPC1, PL45, Panc-1); test: Accumulation of various peptides in pancreatic cancer cells (Test Example 5); format: cell-based, human; settings: 2 μM, 37° C., 2 hours
# Protocol: Test were conducted to confirm the accumulation of various peptides in each of the cells shown below in Table 11. Further, the peptides shown below in Table 12 were used.
# Each peptide was added to each of the cells shown in Table 11 in an amount sufficient to achieve a final concentration in the medium of 2 μM, and following cultivation of the cells at 37° C. for 2 hours, the sample was washed 3 times with a medium containing no peptide to remove any peptide within the medium. Subsequently, the incorporation of each of the peptides into each of the cells was evaluated visually using an inverted fluorescence microscope. Prior to the microscopic examination, the culture supernatant to which the peptide had been added was removed, and following washing three times with 1×PBS (−), a trypsin treatment was conducted to remove the adherent cells, and the resultant was immediately transferred into a new 96-well plate and once again suspended in fresh culture solution before the microscopic examination was performed. In FIG. 17, “L” indicates the cells to which FAM-PCPP11 was added, “d” indicates the cells to which FAM-d was added, “LL” indicates the cells to which FAM-LL was added, “LL2” indicates the cells to which FAM-LL2 was added, and “dd” indicates the cells to which FAM-dd was added.
# [5] = test system: scirrhous pancreatic cancer model mouse (BxPC3 cells; BxPC3 cells and hMSC); test: Selective absorption of FAM-LL in tissues of scirrhous pancreatic cancer model mouse (Test Example 6); format: in vivo, NOD/SCID mouse; settings: 200 μg into the caudal vein, 30 minutes after administration
# Protocol: FAM-LL was administered to a pancreatic cancer model mouse having scirrhous carcinoma, and the selective absorption of the FAM-LL in various tissues of the mouse was confirmed. A scirrhous pancreatic cancer model mouse having scirrhous carcinoma that forms abundant tumor-stroma interactions was produced in accordance with the method disclosed in Reference Document 1 (Saito K et al., “Stromal mesenchymal stem cells facilitate pancreatic cancer progression by regulating specific secretory molecules through mutual cellular interaction.”, Journal of Cancer, Vol. 9, No. 16, pp. 2916-2929, 2018.). Specifically, a 6-week old NOD/SCID mouse (CLEA Japan Inc., Japan) was raised under pathogen-free conditions. BxPC3 cells (2×10^5 cells) and a cell mixture containing BxPC3 cells (1×10^5 cells) and human mesenchymal stem cells (hMSC) (1×10^5 cells) were each injected subcutaneously into the mouse.
# FAM-LL (200 μg) was injected into the caudal vein of the obtained scirrhous pancreatic cancer model mouse. Subsequently, the pharmacokinetics of the peptide 30 minutes after administration were analyzed by tissue analysis of the freshly dissected specimen of the peptide-administered mouse. FIG. 18A is a series of bright-field images (left and center) and a fluorescent image (right) of the tumors in the scirrhous pancreatic cancer model mouse. […]
# [6] = FIG. 8B, relative to H2110 cells = 1.0
Compound,fluorescence compared with the sample containing FAM-PCPP11 [1],fluorescence compared with the sample containing FAM-PCPP11 [2],inhibitory performance on nonspecific absorption into untargeted normal organs [3],nonspecific absorption compared with conventional PCPP11 [3],absorption into pancreatic malignant tumors compared with the conventional PCPP11 [3],"increase of quantitative value for the fluorescence compared with FAM-PCPP11 [1, 6]","increase of quantitative value for the fluorescence compared with FAM-PCPP11 [2, 6]",fluorescence compared with the other peptides [4],fluorescence detected [4],absorption into the cancer cell nests inside the tumor tissue [5],absorption into the tumor tissue [5]
C[C@H](O)[C@@H](NC(=O)[C@@H](Cc1c[nH]c2ccccc12)NC(=O)[C@@H](Cc1c[nH]cn1)NC(=O)[C@@H](CCCCN)NC(=O)[C@H]1CCCN1C(=O)CNC(=O)[C@@H]1CCCN1C(=O)[C@H](CCCCN)NC(=O)[C@H](Cc1c[nH]cn1)NC(=O)[C@H](Cc1c[nH]c2ccccc12)NC(=O)[C@@H](NC(=O)[C@@H](NC(=O)[C@@H]1CCCN1C(=O)[C@H](CCCNC(=N)N)NC(=O)[C@H](CCCNC(=N)N)NC(=O)c1ccc2c(c1)C(=O)OC21c2ccc(O)cc2Oc2cc(O)ccc21)[C@@H](C)O)[C@@H](C)O)C(=O)N[C@@H](C(=O)N1CCC[C@@H]1C(=O)N[C@H](CCCNC(=N)N)C(=O)N[C@H](CCCNC(=N)N)C(=O)O)[C@H](C)O [FAM-Ld] (5FAM-RRPTTWHKPG[dP][dK][dH][dW][dT][dT][dP][dR][dR]-OH; C-terminus assumed),stronger fluorescence,stronger fluorescence,satisfactorily maintained,inhibited even more effectively,approximately 4 fold,,,,,,
C[C@@H](O)[C@H](NC(=O)[C@@H](NC(=O)[C@@H]1CCCN1C(=O)[C@H](CCCNC(=N)N)NC(=O)[C@H](CCCNC(=N)N)NC(=O)CNC(=O)[C@@H]1CCCN1C(=O)[C@H](CCCCN)NC(=O)[C@H](Cc1c[nH]cn1)NC(=O)[C@H](Cc1c[nH]c2ccccc12)NC(=O)[C@@H](NC(=O)[C@@H](NC(=O)[C@@H]1CCCN1C(=O)[C@H](CCCNC(=N)N)NC(=O)[C@H](CCCNC(=N)N)NC(=O)c1ccc2c(c1)C(=O)OC21c2ccc(O)cc2Oc2cc(O)ccc21)[C@@H](C)O)[C@@H](C)O)[C@@H](C)O)C(=O)N[C@@H](Cc1c[nH]c2ccccc12)C(=O)N[C@@H](Cc1c[nH]cn1)C(=O)N[C@@H](CCCCN)C(=O)N1CCC[C@H]1C(=O)O [FAM-LL] (5FAM-RRPTTWHKPGRRPTTWHKP-OH; C-terminus assumed),stronger fluorescence,stronger fluorescence,satisfactorily maintained,inhibited even more effectively,3 fold,at least 2.9 fold,at least 2.9 fold,stronger fluorescence,particularly strong fluorescence,strong absorption,strong absorption
C[C@@H](O)[C@H](NC(=O)[C@@H](NC(=O)[C@@H]1CCCN1C(=O)[C@H](CCCNC(=N)N)NC(=O)[C@H](CCCNC(=N)N)NC(=O)CNC(=O)[C@@H]1CCCN1C(=O)CNC(=O)[C@@H]1CCCN1C(=O)[C@H](CCCCN)NC(=O)[C@H](Cc1c[nH]cn1)NC(=O)[C@H](Cc1c[nH]c2ccccc12)NC(=O)[C@@H](NC(=O)[C@@H](NC(=O)[C@@H]1CCCN1C(=O)[C@H](CCCNC(=N)N)NC(=O)[C@H](CCCNC(=N)N)NC(=O)c1ccc2c(c1)C(=O)OC21c2ccc(O)cc2Oc2cc(O)ccc21)[C@@H](C)O)[C@@H](C)O)[C@@H](C)O)C(=O)N[C@@H](Cc1c[nH]c2ccccc12)C(=O)N[C@@H](Cc1c[nH]cn1)C(=O)N[C@@H](CCCCN)C(=O)N1CCC[C@H]1C(=O)O [FAM-LL2] (5FAM-RRPTTWHKPGPGRRPTTWHKP-OH; C-terminus assumed),,,,,,,,stronger fluorescence,,,
